Activity calls are given as the source filed them. The calls are words filed in the database; no cut-off is given here. Square brackets hold non-standard residues; d marks the D form. Peptide text beside a SMILES is read from it. * marks the point of attachment. ξ: configuration not given here. C22 diacid = O=C(O)CCCCCCCCCCCCCCCCCCCCC(=O)*; C20 diacid = O=C(O)CCCCCCCCCCCCCCCCCCC(=O)*; Stearoyl = CCCCCCCCCCCCCCCCCC(=O)*; ξR = N=C(N)NCCCC(N)C(=O)O
Experiments:
[1] = target: Chymotrypsin (Homo sapiens, UniProt Q99895+P17538+P40313+Q6GPI1); test: Stability of compound assessed as chymotrypsin (unknown origin) mediated compound degradation by measuring fold change of half-life by RP-HPLC analysis relative to BimBH312-mer peptide; type: ADME, protein assay
[2] = target: T1, Tyrosine-protein phosphatase non-receptor type 1 (Homo sapiens, UniProt P18031); test: Inhibition of N-terminal His tagged recombinant human PTP1B expressed in Escherichia coli using pNPP as substrate assessed as substrate hydrolysis
T1 sequence (P18031 whole entry): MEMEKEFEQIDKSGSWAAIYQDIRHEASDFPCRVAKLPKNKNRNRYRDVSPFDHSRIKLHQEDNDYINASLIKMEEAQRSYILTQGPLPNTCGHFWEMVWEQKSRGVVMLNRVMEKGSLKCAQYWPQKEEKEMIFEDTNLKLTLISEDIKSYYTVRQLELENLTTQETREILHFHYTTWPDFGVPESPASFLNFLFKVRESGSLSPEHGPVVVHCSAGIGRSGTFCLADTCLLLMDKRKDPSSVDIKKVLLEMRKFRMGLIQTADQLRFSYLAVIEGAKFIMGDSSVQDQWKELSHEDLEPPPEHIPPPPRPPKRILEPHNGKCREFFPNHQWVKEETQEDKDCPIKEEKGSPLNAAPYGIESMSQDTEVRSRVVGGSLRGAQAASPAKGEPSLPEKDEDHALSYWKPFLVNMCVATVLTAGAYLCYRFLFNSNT

[3] = tested on: Mus musculus; test: Antidiabetic activity against over-night fasted C57BL/ks db/db mouse assessed as suppression of increased blood glucose concentration at 1 uM/kg, sc pretreated with compound for 4 weeks followed by oral glucose stimulation and measured upto 120 mins by oral glucose tolerance test; type: functional, organism-based; conditions: time 40440.0 min
[4] = target: T2, Tyrosine-protein phosphatase non-receptor type 2 (Homo sapiens, UniProt P17706); test: Inhibition of recombinant human TC-PTP (1 to 314 residues) expressed in baculovirus infected insect cells using pNPP as substrate assessed as substrate hydrolysis; design: species or system Insect cell
T2 sequence (P17706 whole entry): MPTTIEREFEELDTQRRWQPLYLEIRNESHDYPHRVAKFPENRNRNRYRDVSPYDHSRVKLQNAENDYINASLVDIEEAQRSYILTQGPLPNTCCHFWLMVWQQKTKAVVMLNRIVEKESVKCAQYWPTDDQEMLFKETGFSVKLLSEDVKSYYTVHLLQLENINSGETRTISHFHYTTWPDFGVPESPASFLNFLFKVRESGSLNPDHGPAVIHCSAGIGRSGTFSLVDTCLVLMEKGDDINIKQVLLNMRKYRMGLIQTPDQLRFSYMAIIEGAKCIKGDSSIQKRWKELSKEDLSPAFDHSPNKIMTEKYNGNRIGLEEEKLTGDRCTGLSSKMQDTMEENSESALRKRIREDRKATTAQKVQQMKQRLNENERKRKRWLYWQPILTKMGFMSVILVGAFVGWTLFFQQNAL

[5] = tested on: Proteinase K; test: Stability of compound assessed as Proteinase K (unknown origin) mediated compound degradation by measuring half-life by HPLC analysis; type: ADME
[6] = tested on: Pepsin; test: Stability of compound assessed as Pepsin (unknown origin) mediated compound degradation by measuring half-life by HPLC analysis; type: ADME; conditions: human
[7] = tested on: Mus musculus; test: Antidiabetic activity against C57BL/Ks db/db mouse assessed as redcution in fasting blood glucose level at 1 umol/kg, sc administered once a week and measured on day 15 by glucometer analysis (reference value: 27.3 +/- 2.4 […]); type: functional; conditions: dose 1 µmol/kg, time 15 day
[8] = tested on: Mus musculus; test: Antidiabetic activity against C57BL/Ks db/db mouse assessed as redcution in fasting blood glucose level at 1 umol/kg, sc administered once a week and measured on day 26 by glucometer analysis (reference value: 31.4 +/- 2.2 […]); type: functional; conditions: dose 1 µmol/kg, time 26 day
[9] = tested on: Mus musculus; test: Antidiabetic activity against C57BL/Ks db/db mouse assessed as redcution in fasting blood glucose level at 1 umol/kg, sc administered once a week and measured on day 24 by glucometer analysis (reference value: 30.2 +/- 3.2 […]); type: functional; conditions: dose 1 µmol/kg, time 24 day
[10] = target: T3, Carboxypeptidase A1 (Homo sapiens, UniProt P15085); test: Stability of compound assessed as carboxypeptidase A (unknown origin) mediated compound degradation by measuring fold change of half-life by RP-HPLC analysis relative to BimBH312-mer peptide; type: ADME
T3 sequence (P15085 whole entry): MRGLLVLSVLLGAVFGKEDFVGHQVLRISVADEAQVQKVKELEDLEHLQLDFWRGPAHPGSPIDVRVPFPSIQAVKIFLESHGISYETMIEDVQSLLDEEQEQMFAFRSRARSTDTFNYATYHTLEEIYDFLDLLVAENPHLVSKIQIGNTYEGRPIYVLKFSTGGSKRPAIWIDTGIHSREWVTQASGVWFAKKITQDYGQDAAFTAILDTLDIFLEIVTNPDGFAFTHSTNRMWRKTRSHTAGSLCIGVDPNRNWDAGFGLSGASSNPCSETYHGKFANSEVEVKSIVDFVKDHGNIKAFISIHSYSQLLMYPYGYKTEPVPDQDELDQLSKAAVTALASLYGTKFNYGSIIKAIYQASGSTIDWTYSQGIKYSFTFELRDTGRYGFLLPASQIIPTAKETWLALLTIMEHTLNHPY

[11] = target: T4, Tyrosine-protein phosphatase non-receptor type 1 (Homo sapiens) (UniProt P18031); test: Inhibition of N-terminal His tagged recombinant human PTP1B expressed in Escherichia coli using pNPP as substrate assessed as substrate hydrolysis at 40 umol/L relative to control; conditions: dose 40.0 µmol/L
T4 sequence (whole entry): T1 sequence (P18031 whole entry)

[12] = tested on: Mus musculus; test: Antidiabetic activity against C57BL/Ks db/db mouse assessed as redcution in fasting blood glucose level at 1 umol/kg administered subcutaneously and measured immediately by glucometer analysis (reference value: 19.0 +/- 2.7 […]); type: functional; conditions: dose 1 µmol/kg; route sc
[13] = species: Homo sapiens; test: Selectivity index, ratio of IC50 for inhibition of recombinant human TC-PTP (1 to 314 residues) expressed in baculovirus infected insect cells to IC50 for inhibition of N-terminal His-tagged recombinant human PTP1B expressed in Escherichia coli
[14] = target: T5, carboxypeptidase A (Homo sapiens, UniProt P15085); test: Stability of compound assessed as carboxypeptidase A (unknown origin) mediated compound degradation by measuring half-life by RP-HPLC analysis; type: ADME
T5 sequence (P15085 whole entry): T3 sequence (P15085 whole entry)

[15] = tested on: Mus musculus; test: Antidiabetic activity against sc dosed C57BL/Ks db/db mouse assessed as reduction in glucagon level at 1 umol/kg by ELISA analysis; type: functional, organism-based; conditions: dose 1.0 µmol/kg
[16] = Stability of compound assessed as Proteinase K (unknown origin) mediated compound degradation by measuring fold change of half-life by HPLC analysis relative to BimBH312-mer peptide; type: ADME
[17] = target: chymotrypsin (Homo sapiens, UniProt P17538+P40313+Q6GPI1+Q99895); test: Stability of compound assessed as chymotrypsin (unknown origin) mediated compound degradation by measuring half-life by RP-HPLC analysis; type: ADME, protein assay
[18] = Stability of compound assessed as Pepsin (unknown origin) mediated compound degradation by measuring fold change of half-life by HPLC analysis relative to BimBH312-mer peptide; type: ADME; conditions: human
[19] = tested on: Mus musculus; test: Antidiabetic activity against sc dosed C57BL/Ks db/db mouse assessed as reduction in serum insulin level at 1 umol/kg by ELISA analysis; type: functional, organism-based; conditions: dose 1.0 µmol/kg
[20] = tested on: Mus musculus; test: Antidiabetic activity against over-night fasted C57BL/ks db/db mouse assessed as suppression of increased blood glucose concentration at 1 uM/kg, sc pretreated with compound for 4 weeks followed by insulin stimulation and measured for 90 mins by insulin tolerance test; type: functional, organism-based; conditions: time 40410.0 min
[21] = tested on: Mus musculus; test: Antidiabetic activity against C57BL/Ks db/db mouse assessed as redcution in fasting blood glucose level at 1 umol/kg, sc administered once a week and measured on day 8 by glucometer analysis (reference value: 27.7 +/- 3.7 […]); type: functional; conditions: dose 1 µmol/kg, time 8 day
[22] = tested on: Mus musculus; test: Antidiabetic activity against sc dosed C57BL/Ks db/db mouse assessed as reduction in C-peptide level at 1 umol/kg by ELISA analysis; type: functional, organism-based; conditions: dose 1.0 µmol/kg
[23] = tested on: Mus musculus; test: Antidiabetic activity against C57BL/Ks db/db mouse assessed as redcution in fasting blood glucose level at 1 umol/kg, sc administered once a week and measured on day 22 by glucometer analysis (reference value: 27.4 +/- 1.8 […]); type: functional; conditions: dose 1 µmol/kg, time 22 day
[24] = tested on: Mus musculus; test: Antidiabetic activity against C57BL/Ks db/db mouse assessed as redcution in fasting blood glucose level at 1 umol/kg, sc administered once a week and measured on day 28 by glucometer analysis (reference value: 32.4 +/- 1.1 […]); type: functional; conditions: dose 1 µmol/kg, time 28 day
[25] = target: T6, Tyrosine-protein phosphatase non-receptor type 2 (Homo sapiens) (UniProt P17706); test: Inhibition of recombinant human TC-PTP (1 to 314 residues) expressed in baculovirus infected insect cells using pNPP as substrate assessed as substrate hydrolysis at 50 umol/L relative to control; conditions: Insect cell, dose 50.0 µmol/L
T6 sequence (whole entry): T2 sequence (P17706 whole entry)

fold change (FC) [1]	IC50 [2] [nM]	IC50 [4] [nM]	half-life [5] [h]	half-life [6] [h]	fold change (FC) [10]	inhibition [11] [%]	half-life [14] [h]	fold change (FC) [16]	half-life [17] [h]	fold change (FC) [18]	SMILES	Activity [3]	Fasting blood glucose [7] [mmol/L]	Fasting blood glucose level [8] [mmol/L]	Fasting blood glucose level [9] [mmol/L]	Fasting blood glucose level [12] [mmol/L]	Ratio IC50 [13]	Activity [15]	Activity [19]	Activity [20]	further results
170.5	120	13600	1.43	7.36	549.1	> 50	17.6	28.6	7.33	334.5	CCCCCCCCCCCCCCCCCC(=O)N[C@H](C(=O)N[C@@H](C)C(=O)N[C@@H](CCC(N)=O)C(=O)N[C@@H](CCC(=O)O)C(=O)N[C@@H](CC(C)C)C(=O)N[C@@H](CCCNC(=N)N)C(=O)NC(CCCNC(=N)N)C(=O)N[C@H](C(=O)NCC(=O)N[C@@H](CC(=O)O)C(=O)N[C@@H](CCC(=O)O)C(=O)N[C@@H](Cc1ccccc1)C(=O)O)[C@@H](C)CC)[C@@H](C)CC (stereo partly drawn) (Stearoyl-IAQELR[ξR]IGDEF-OH)	Active	12.8	16.3	18.1	20.4	113	Active	Active	Active	Fasting blood glucose level [21]: 11.8 mmol/L; Activity [22]: Active; Fasting blood glucose level [23]: 15.6 mmol/L; Fasting blood glucose level [24]: 19.8 mmol/L
11.6	443	> 50000	0.9	1.52	7.8	> 50	0.25	18	0.5	69.1	CC[C@H](C)[C@H](NC(=O)CCCCCCCCCCCCCCCCCCC(=O)O)C(=O)N[C@@H](C)C(=O)N[C@@H](CCC(N)=O)C(=O)N[C@@H](CCC(=O)O)C(=O)N[C@@H](CC(C)C)C(=O)N[C@@H](CCCNC(=N)N)C(=O)NC(CCCNC(=N)N)C(=O)N[C@H](C(=O)NCC(=O)N[C@@H](CC(=O)O)C(=O)N[C@@H](CCC(=O)O)C(=O)N[C@@H](Cc1ccccc1)C(=O)O)[C@@H](C)CC (stereo partly drawn) ({C20 diacid}-IAQELR[ξR]IGDEF-OH)	Active	9.7	19	16	18.6	> 113	Active	Active	Active	inhibition [25]: < 50%; Fasting blood glucose level [21]: 11.3 mmol/L; Activity [22]: Active; Fasting blood glucose level [24]: 19.2 mmol/L
158.4	200	> 50000	0.51	1.41	40	> 50	1.28	10.2	6.81	64.1	CC[C@H](C)[C@H](NC(=O)CCCCCCCCCCCCCCCCCCCCC(=O)O)C(=O)N[C@@H](C)C(=O)N[C@@H](CCC(N)=O)C(=O)N[C@@H](CCC(=O)O)C(=O)N[C@@H](CC(C)C)C(=O)N[C@@H](CCCNC(=N)N)C(=O)NC(CCCNC(=N)N)C(=O)N[C@H](C(=O)NCC(=O)N[C@@H](CC(=O)O)C(=O)N[C@@H](CCC(=O)O)C(=O)N[C@@H](Cc1ccccc1)C(=O)O)[C@@H](C)CC (stereo partly drawn) ({C22 diacid}-IAQELR[ξR]IGDEF-OH)	Active	11	19.7	16	19.7	> 250	Active	Active	Active	inhibition [25]: < 50%; Fasting blood glucose level [21]: 11.5 mmol/L; Activity [22]: Active; Fasting blood glucose level [23]: 11.4 mmol/L; Fasting blood glucose level [24]: 17 mmol/L

Source: ChEMBL document CHEMBL5316338, “Discovery of Novel PTP1B Inhibitors with Once-Weekly Therapeutic Potential for Type 2 Diabetes: Design, Synthesis, and In Vitro and In Vivo Investigations of BimBH3 Peptide Analogues” (J Med Chem, 2023)
